{"source": "patent US20150104392A1", "about": "“COMPOSITIONS, BIOMARKERS AND THEIR USE IN THE TREATMENT OF CANCER” (Aptose Biosciences Inc., priority 2013, published 2015)", "key": {"H226 xenograft": {"tested_on": "H226 xenograft", "assay": "H226 xenograft model, dose and schedule", "assay_type": "in vivo, mice", "details": "groups 2, 3 and 4: 10 mg/kg-iv, schedules 3T-12B-3T, 2T-5B-2T, 3T-5B-3T, 2 cycles"}, "NB4": {"tested_on": "NB4", "assay": "XTT antiproliferative assay", "assay_type": "cell-based", "details": "Homo sapiens, NB-4, 120 h; NB4, Acute myeloid leukemia; 5 days incubation", "procedure": "(§1) Antiproliferative activity of LOR-253 was determined by XTT assay as follows. Adherent cells (2×10^3/well) in 100 μL of growth medium were seeded in 96-well cell culture plates and incubated overnight at 37° C. The medium was removed and replaced with a total volume of 100 μL growth medium containing LOR-253 (or 0.1% DMSO vehicle control), as described in the respective experiments. Suspension cells were plated (4-6×10^3/well) in 50 μL growth medium, and 50 μL growth medium containing LOR-253 (or 0.1% DMSO vehicle control) was added to each well. After incubation of the cells at 37° C. for 5 days, cell viability was quantitated with the use of sodium 3′-[1-(phenylamino-carbonyl)-3,4-tetrazolium}-bis(4-methoxy-6-nitro)benzene sulfonic acid hydrate (XTT) colorimetric assay (Roche). XTT labeling reagent (1 mg/mL) was mixed with electron-coupling reagent, following the manufacturer's instructions, and 50 μL of the mixture was added directly to the cells. The plates were further incubated at 37° C. for 4 h, and the absorbance of each well was measured at 490 nm with a multiwell spectrophotometer (Bio-Tek Instruments Inc.). The data were adjusted relative to the blank and expressed as a percentage of cell growth compared with the vehicle control. (Ref. Huesca et al., Mol Cancer Ther. 2009. 8:2586-96; Lorus publication on LOR-133)"}, "Kasumi-1": {"tested_on": "Kasumi-1", "assay": "XTT antiproliferative assay", "assay_type": "cell-based", "details": "Homo sapiens, 120 h; Kasumi-1, Acute myeloid leukemia; 5 days incubation", "procedure": "as §1"}, "OCI-AML2": {"tested_on": "OCI-AML2", "assay": "XTT antiproliferative assay", "assay_type": "cell-based", "details": "Homo sapiens, 120 h; OCI-AML2, Acute myeloid leukemia; 5 days incubation", "procedure": "as §1"}, "HEL92.1.7": {"tested_on": "HEL92.1.7", "assay": "XTT antiproliferative assay", "assay_type": "cell-based", "details": "Homo sapiens, HEL 92.1.7, 120 h; HEL92.1.7, Acute myeloid leukemia; 5 days incubation", "procedure": "as §1"}, "SKM-1": {"tested_on": "SKM-1", "assay": "XTT antiproliferative assay", "assay_type": "cell-based", "details": "Homo sapiens, 120 h; SKM-1, Acute myeloid leukemia; 5 days incubation", "procedure": "as §1"}, "Raji": {"tested_on": "Raji", "assay": "XTT antiproliferative assay", "assay_type": "cell-based", "details": "Homo sapiens, 120 h, Non-Hodgkin's Lymphoma, 5 days incubation", "procedure": "as §1"}, "Jurkat": {"tested_on": "Jurkat", "assay": "XTT antiproliferative assay", "assay_type": "cell-based", "details": "Homo sapiens, 120 h, Acute lymphoblastic leukemia, 5 days incubation", "procedure": "as §1"}, "CCRF-CEM": {"tested_on": "CCRF-CEM", "assay": "XTT antiproliferative assay", "assay_type": "cell-based", "details": "Homo sapiens, 120 h, Acute lymphoblastic leukemia, 5 days incubation", "procedure": "as §1"}, "NOMO-1": {"tested_on": "NOMO-1", "assay": "XTT antiproliferative assay", "assay_type": "cell-based", "details": "Homo sapiens, 120 h; NOMO-1, Acute myeloid leukemia; 5 days incubation", "procedure": "as §1"}, "HL-60 [1]": {"tested_on": "HL-60", "assay": "XTT antiproliferative assay", "assay_type": "cell-based", "details": "Homo sapiens, 120 h; HL-60, Acute myeloid leukemia; 5 days incubation", "procedure": "as §1"}, "DB": {"tested_on": "DB", "assay": "XTT antiproliferative assay", "assay_type": "cell-based", "details": "Homo sapiens, 120 h, Non-Hodgkin's Lymphoma, 5 days incubation", "procedure": "as §1"}, "CA46": {"tested_on": "CA46", "assay": "XTT antiproliferative assay", "assay_type": "cell-based", "details": "Homo sapiens, 120 h; CA46, Non-Hodgkin's Lymphoma; 5 days incubation", "procedure": "as §1"}, "RL": {"tested_on": "RL", "assay": "XTT antiproliferative assay", "assay_type": "cell-based", "details": "Homo sapiens, 120 h, Non-Hodgkin's Lymphoma, 5 days incubation", "procedure": "as §1"}, "Mino": {"tested_on": "Mino", "assay": "XTT antiproliferative assay", "assay_type": "cell-based", "details": "Homo sapiens, 120 h, Non-Hodgkin's Lymphoma, 5 days incubation", "procedure": "as §1"}, "MOLT-4": {"tested_on": "MOLT-4", "assay": "XTT antiproliferative assay", "assay_type": "cell-based", "details": "Homo sapiens, 120 h; MOLT-4, Acute lymphoblastic leukemia; 5 days incubation", "procedure": "as §1"}, "HuNS1": {"tested_on": "HuNS1", "assay": "XTT antiproliferative assay", "assay_type": "cell-based", "details": "120 h; HuNS1, Multiple myeloma; 5 days incubation", "procedure": "as §1"}, "U266B1": {"tested_on": "U266B1", "assay": "XTT antiproliferative assay", "assay_type": "cell-based", "details": "120 h; U266B1, Multiple myeloma; 5 days incubation", "procedure": "as §1"}, "MOLM13 (CD47+)": {"tested_on": "MOLM13 (CD47+)", "assay": "XTT antiproliferative assay", "assay_type": "cell-based", "details": "Homo sapiens, MOLM-13, 120 h, Acute myeloid leukemia, 5 days incubation", "procedure": "as §1"}, "K562": {"tested_on": "K562", "assay": "XTT antiproliferative assay", "assay_type": "cell-based", "details": "Homo sapiens, 120 h; K562, Chronic Myelogenous Leukemia; 5 days incubation", "procedure": "as §1"}, "HL-60 [2]": {"tested_on": "HL-60", "assay": "Cell cycle analysis, propidium iodide flow cytometry", "assay_type": "cell-based", "details": "0.5 μM, 16 hours", "procedure": "(§2) THP1 and HL-60 AML cell lines were treated with DMSO (vehicle control) or 0.5 μM LOR-253 for 16 hours. Cells were washed once in PBS+1% FCS and fixed using ice cold 70% ethanol overnight. Fixed cells were washed twice, resuspended in PI/RNaseA solution, containing 20 μg/mL propidium iodide and 250 μg/mL RNaseA, and stained for 30 minutes at 37° C. Stained cells were analyzed using a BD FACSCalibur flow cytometer."}, "THP1 [3]": {"tested_on": "THP1", "assay": "Cell cycle analysis, propidium iodide flow cytometry", "assay_type": "cell-based", "details": "0.5 μM, 16 hours", "procedure": "as §2"}, "HL-60 [4]": {"tested_on": "HL-60", "assay": "KLF4/p21 induction, quantitative RT-PCR", "assay_type": "cell-based, human", "details": "0.5 μM, 16 hours", "procedure": "(§3) To determine if KLF4 and/or p21 expressions are induced by LOR-253, AML cells (THP1, HL-60) were treated with DMSO (vehicle control) or 0.5 μM LOR-253 for 16 hours. Total RNA was extracted using the TRIzol Plus RNA Purification kit (Ambion, Life Technologies), according to the manufacturer's instructions. First strand cDNA was synthesized from 1-2 ug total RNA using random hexamer primers (Invitrogen) and the SuperScript II Reverse Transcriptase kit (Invitrogen). Quantitative RT-PCR was performed in the ABI Prism 7000 Sequence Detection System using cDNAs and human TaqMan Gene Expression Assay primer/probe sets for Krüppel-like factor 4 (KLF4), cyclin-dependent kinase inhibitor 1A (p21) and the ABI TaqMan Universal PCR master mix protocol. Gene expression was normalized with β-actin gene expression in the same sample, and fold changes in KLF4 or p21 were expressed relative to the corresponding expression level in the DMSO treated samples using the comparative CT method."}, "THP1 [5]": {"tested_on": "THP1", "assay": "KLF4/p21 induction, quantitative RT-PCR", "assay_type": "cell-based, human", "details": "0.5 μM, 16 hours", "procedure": "as §3"}}, "data": [{"smiles": "Cc1[nH]c2ccc(F)cc2c1-c1nc2c3cccnc3c3ncccc3c2[nH]1", "note": "[LOR-253]", "values": [{"measurement": "tumor size, H226 xenograft", "setting": "H226 xenograft", "value": "effectively treated"}, {"measurement": "IC50", "setting": "NB4", "value": 60, "unit": "nM"}, {"measurement": "IC50", "setting": "Kasumi-1", "value": 6.9, "unit": "nM"}, {"measurement": "IC50", "setting": "OCI-AML2", "value": 76, "unit": "nM"}, {"measurement": "IC50", "setting": "HEL92.1.7", "value": 305, "unit": "nM"}, {"measurement": "IC50", "setting": "SKM-1", "value": 145, "unit": "nM"}, {"measurement": "IC50", "setting": "Raji", "value": 11, "unit": "nM"}, {"measurement": "IC50", "setting": "Jurkat", "value": 71, "unit": "nM"}, {"measurement": "IC50", "setting": "CCRF-CEM", "value": 39, "unit": "nM"}, {"measurement": "IC50", "setting": "NOMO-1", "value": 121, "unit": "nM"}, {"measurement": "IC50", "setting": "HL-60 [1]", "value": 46, "unit": "nM"}, {"measurement": "IC50", "setting": "DB", "value": 99, "unit": "nM"}, {"measurement": "IC50", "setting": "CA46", "value": 190, "unit": "nM"}, {"measurement": "IC50", "setting": "RL", "value": 190, "unit": "nM"}, {"measurement": "IC50", "setting": "Mino", "value": 140, "unit": "nM"}, {"measurement": "IC50", "setting": "MOLT-4", "value": 70, "unit": "nM"}, {"measurement": "IC50", "setting": "HuNS1", "value": 72, "unit": "nM"}, {"measurement": "IC50", "setting": "U266B1", "value": 180, "unit": "nM"}, {"measurement": "IC50", "setting": "MOLM13 (CD47+)", "value": 130, "unit": "nM"}, {"measurement": "IC50", "setting": "K562", "value": 250, "unit": "nM"}, {"measurement": "cell cycle effect", "setting": "HL-60 [2]", "value": "G1/S cell cycle arrest"}, {"measurement": "cell cycle effect", "setting": "THP1 [3]", "value": "G1/S cell cycle arrest"}, {"measurement": "KLF4 expression (fold change vs DMSO)", "setting": "HL-60 [4]", "value": "increased expression"}, {"measurement": "p21 expression (fold change vs DMSO)", "setting": "HL-60 [4]", "value": "increased expression"}, {"measurement": "KLF4 expression (fold change vs DMSO)", "setting": "THP1 [5]", "value": "increased expression"}, {"measurement": "p21 expression (fold change vs DMSO)", "setting": "THP1 [5]", "value": "increased expression"}]}]}
